Experimental data as given in the supplement of paper PMC11061612.

How the values were obtained:
Experiment in all cases: combination Emax (second highest fraction inhibited in the dose matrix, 72 h); higher = more inhibition; extreme values may be limits of the assay
[1] = system: EBC-1 (Squamous Cell Lung Carcinoma)
Summary of the method: (§1)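 Cell lines grown in DMEM/F12 or RPMI with 10% FBS were plated in 1536-well plates and held 24 hours at 37°C, 5% CO2 before 72 hours of exposure to two-drug dose matrices, with DMSO typically at 0.2%. CellTiter-Glo 2.0 luminescence gave viability, which was converted to inhibition. Vehicle wells were set to 0 and blank wells to 1. Combination Emax is the second-highest inhibition in the matrix, and Bliss excess is the observed combination effect minus the expected EA + EB − EA·EB, where EA and EB are the single-agent effects.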

EW-13 (Ewing's Sarcoma) = system: EW-13 (Ewing's Sarcoma)
Summary of the method: as §1

GOTO (Neuroblastoma) = system: GOTO (Neuroblastoma)
Summary of the method: as §1

IMR-5 (Neuroblastoma) = system: IMR-5 (Neuroblastoma)
Summary of the method: as §1

[2] = system: KINGS-1 (Low Grade Glioma)
Summary of the method: as §1

[3] = system: KLE (Endometrial Carcinoma)
Summary of the method: as §1

[4] = system: KP-2 (Pancreatic Carcinoma)
Summary of the method: as §1

[5] = system: KU-19-19 (Bladder Carcinoma)
Summary of the method: as §1

[6] = system: KYSE-50 (Esophageal Squamous Cell Carcinoma)
Summary of the method: as §1

[7] = system: LC4-1 (B-Lymphoblastic Leukemia)
Summary of the method: as §1

[8] = system: LOU-NH91 (Squamous Cell Lung Carcinoma)
Summary of the method: as §1

[9] = system: MFE-319 (Endometrial Carcinoma)
Summary of the method: as §1

[10] = system: NCI-N87 (Gastric Carcinoma)
Summary of the method: as §1

NH-12 (Neuroblastoma) = system: NH-12 (Neuroblastoma)
Summary of the method: as §1

[11] = system: OVISE (Ovarian Carcinoma)
Summary of the method: as §1

RPMI-7951 (Melanoma) = system: RPMI-7951 (Melanoma)
Summary of the method: as §1

[12] = system: SCC-3 (B-Cell Non-Hodgkin's Lymphoma)
Summary of the method: as §1

[13] = system: SCC-9 (Oral Cavity Carcinoma)
Summary of the method: as §1

[14] = system: TGBC11TKB (Gastric Carcinoma)
Summary of the method: as §1

U-87-MG (Glioblastoma) = system: U-87-MG (Glioblastoma)
Summary of the method: as §1

| SMILES | combination Emax [1] | combination Emax (EW-13 (Ewing's Sarcoma)) | combination Emax (GOTO (Neuroblastoma)) | combination Emax (IMR-5 (Neuroblastoma)) | combination Emax [2] | combination Emax [3] | combination Emax [4] | combination Emax [5] | combination Emax [6] | combination Emax [7] | combination Emax [8] | combination Emax [9] | combination Emax [10] | combination Emax (NH-12 (Neuroblastoma)) | combination Emax [11] | combination Emax (RPMI-7951 (Melanoma)) | combination Emax [12] | combination Emax [13] | combination Emax [14] | combination Emax (U-87-MG (Glioblastoma)) |
| --- | --- | --- | --- | --- | --- | --- | --- | --- | --- | --- | --- | --- | --- | --- | --- | --- | --- | --- | --- | --- |
| CN(CCO)CC[C@H](CSc1ccccc1)Nc1ccc(S(=O)(=O)NC(=O)c2ccc(N3CCC([C@@H](O)c4ccccc4-c4ccc(Cl)cc4)CC3)cc2)cc1S(=O)(=O)C(F)(F)F [AZD4320] + C=CCn1c(=O)c2cnc(Nc3ccc(N4CCN(C)CC4)cc3)nc2n1-c1cccc(C(C)(C)O)n1 [AZD1775] (first compound max 1 µM, partner max 1 µM) | 0.975 | 0.665 | 0.855 | 0.983 | 0.526 | 0.573 | 0.912 | 0.964 | 0.476 | 1 | 0.822 | 0.944 | 0.888 | 0.98 | 0.939 | 0.879 | 0.779 | 0.281 | 0.964 | 0.187 |
| COc1nnc2ccc(N3CCC(c4ccc(OCCN5CCN(C)C(=O)[C@H]5C)cc4)CC3)nn12 [AZD5153] + C=CCn1c(=O)c2cnc(Nc3ccc(N4CCN(C)CC4)cc3)nc2n1-c1cccc(C(C)(C)O)n1 [AZD1775] (first compound max 1 µM, partner max 1 µM) | 0.802 | 0.407 | 0.919 | 0.973 | 0.251 | 0.679 | 0.437 | 0.731 | 0.798 | 0.941 | 0.948 | 0.741 | 0.717 | 0.91 | 0.767 | 0.802 | 0.9 | 0.518 | 0.831 | 0.53 |
| CC1(C)CCC(CN2CCN(c3ccc(C(=O)NS(=O)(=O)c4ccc(NCC5CCOCC5)c([N+](=O)[O-])c4)c(Oc4cnc5[nH]ccc5c4)c3)CC2)=C(c2ccc(Cl)cc2)C1 [Venetoclax] + COc1cc(Nc2ncc3c(n2)-c2ccc(Cl)cc2C(c2c(F)cccc2OC)=NC3)ccc1C(=O)O [Alisertib] (first compound max 1 µM, 7x7, partner max 10 µM) | 0.436 | 0.294 | 0.719 | 1 | 0.379 | 0.635 | 0.267 | 0.462 | 0.537 | 1 | 0.479 | 0.395 | 0.335 | 0.977 | 0.578 | 0.683 | 0.893 | 0.274 | 0.387 | 0.423 |
| CC1(C)CCC(CN2CCN(c3ccc(C(=O)NS(=O)(=O)c4ccc(NCC5CCOCC5)c([N+](=O)[O-])c4)c(Oc4cnc5[nH]ccc5c4)c3)CC2)=C(c2ccc(Cl)cc2)C1 [Venetoclax] + C[C@@H](Nc1cc(F)cc(F)c1)c1cc(C(=O)N(C)C)cc2c(=O)cc(N3CCOCC3)oc12 [AZD8186] (first compound max 1 µM, 7x7, partner max 3 µM) | 0.209 | 0.322 | 0.305 | 0.276 | 0.332 | 0.41 | 0.0788 | 0.0745 | 0.18 | 1 | 0.221 | 0.0342 | 0.578 | 0.612 | 0.238 | 0.496 | 0.207 | 0.193 | 0.203 | 0.44 |
| CS(=O)(=O)CCNCc1ccc(-c2ccc3ncnc(Nc4ccc(OCc5cccc(F)c5)c(Cl)c4)c3c2)o1 [Lapatinib] + C[C@@H](Oc1cc(-c2cnn(C3CCNCC3)c2)cnc1N)c1c(Cl)ccc(F)c1Cl [Crizotinib] (first compound max 10 µM, 7x7, partner max 10 µM) | 1 | 0.285 | 1 | 0.976 | 0.921 | 0.51 | 0.788 | 0.918 | 0.93 | 0.963 | 0.924 | 0.511 | 0.978 | 0.873 | 0.888 | 0.975 | 0.999 | 0.964 | 0.622 | 0.613 |
| COc1cccc(OCCCN)c1-c1cc(Nc2cnc(C#N)cn2)n[nH]1 [Prexasertib] + CCc1c2c(nc3ccc(O)cc13)-c1cc3c(c(=O)n1C2)COC(=O)[C@]3(O)CC [SN-38] (first compound max 1 µM, 7x7, partner max 0.3 µM) | 0.953 | 0.84 | 0.94 | 1 | 0.691 | 0.593 | 0.837 | 0.959 | 0.904 | 0.966 | 0.936 | 0.897 | 0.816 | 0.935 | 0.689 | 0.997 | 1 | 0.561 | 0.982 | 0.74 |
